Assay results reported in patent EP1191024A1, “Thiadiazines and their use as inhibitors of metalloproteinases” (Tschesche, Harald, priority 2000, dated 2002).

Key:
[1] = biological target: MMPs; assay: Ki determination in microfluorometric assay (Cheng-Prusoff, enzyme not specified); format: biochemical, human; conditions: enzyme not given
Experimental: (§1) The enzymatic activity was measured using a modified version of a resonance energy transfer fluorogenic assay as described^[26]. Progress curves were monitored by following the increase in fluorescence at 393 nm (λex = 328 nm), induced by the cleavage of the (7-methoxycoumarin-4-yl)acetyl-Pro-Leu-Gly-Leu-(3-[2,4-dinitro-phenyl]-L-2,3-diamino-propionyl)-Ala-Arg-NH2 (Mca-Pro-Leu-Gly-Leu-Dpa-Ala-Arg-NH2) fluorogenic substrate by MMPs. The fluorescent MCA-group is quenched by resonance energy transfer to the 2,4-dinitrophenyl group. Matrix metalloproteinases cleave this substrate at the Gly-Leu bond. Cleavage results in the loss of energy transfer and a large increase in fluorescence of the MCA group. This substrate is commercially available from Bachem, Switzerland.
Enzyme inhibition assays were carried out in MRB which consisted of 50 mM HEPES/NaOH, pH 7.0, 10 mM CaCl2 and 0,02% (w/v) PEG 8000 at 25°C. […] After preincubation for 30 min at 25°C the reaction was started by addition of substrate and the plate was read on a SpectraFluor Plus (Tecan, Germany) plate reader with excitation at 330 nm and emission at 405 nm with the gain set to 150. […] The experiment was further controlled for background fluorescence of the substrate, for fluorescence of fully cleaved substrate and for fluorescence quenching or augmentation from solutions containing the test compounds. […]

[2] = biological target: cdMMP-2 (Homo sapiens, UniProt P08253); assay: MMP microfluorometric profiling assay (fluorogenic Mca-peptide substrate); format: biochemical; conditions: read-out: cdMMP-2 IC50
Experimental: The tested MMP enzymes were prepared more specifically in the laboratories of the applicants, with the exception of MMP-1. MMP-1 from human rheumatoid synovial fibroblasts was purchased from Calbiochem-Novabiochem Corporation, LaJolla. Preparation of the recombinant catalytic domain of human Gelatinase A (cdMMP-2): The catalytic domain of Pro-Gelatinase A was prepared using an E. coli expression system according to the method described by Kröger et al^[19]. The proenzyme was activated with 0.5 mM APMA at 37°C prior to use in the assay. […] Preparation of PMNL-Gelatinase (MMP-9): Latent PMNL-pro-Gelatinase was prepared from human plasma buffy coat as described by Tschesche et al^[21]. PMNL-pro-Gelatinase was activated prior to use by incubation with Trypsin at 37°C for 10 min. Inactivation of Trypsin was accomplished with TKI. […] The overexpressed protein was isolated as inclusion bodies and the renatured protein was purified by affinity chromatography with a hydroxamate inhibitor coupled column as described^[22]. Preparation of the recombinant catalytic domain of human Collagenase-3 (cdMMP-13): Human pro-cdMMP-13 was prepared using an E. coli expression system according to the method described^[23]. The isolated pro-cdMMP-13 was activated prior to use by incubation with 5 mM HgCl2 for 2 h at 37°C.
as §1
(§2) Enzyme inhibition assays were carried out in MRB which consisted of 50 mM HEPES/NaOH, pH 7.0, 10 mM CaCl2 and 0,02% (w/v) PEG 8000 at 25°C. MMP microfluorometric profiling assay was done in white U-bottomed 96-well plates (Microfluor 1 White, Dynex, USA) with a final substrate concentration of 6 µM MCA-peptide, approximately 0.3 to 5 nM MMP with variable inhibitor concentrations and 2% DMSO vehicle. From a 1.5 mM stock (100% DMSO) the inhibitors were serially diluted with MRB to 15, 10, 5, 3, 1, 0.6, 0.3, 0.1, 0.05, 0.01 and 0.005 µM final assay concentration. Column 1, rows A through H, contained only DMSO for the "enzyme-only" wells in the assay. After preincubation for 30 min at 25°C the reaction was started by addition of substrate and the plate was read on a SpectraFluor Plus (Tecan, Germany) plate reader with excitation at 330 nm and emission at 405 nm with the gain set to 150. Each measurement was done in triplicate to ensure statistically significant results. The experiment was further controlled for background fluorescence of the substrate, for fluorescence of fully cleaved substrate and for fluorescence quenching or augmentation from solutions containing the test compounds.
Datapoints from eight different MMPs generated on the SpectraFluor Plus were directly visualized on a master Excel spreadsheet. The response of inhibition was determinated for each inhibitor concentration by comparing the amount of hydrolysis (fluorescence units generated over 30 minutes of hydrolysis) of wells containing compound with the "enzyme-only" wells in column 1. With the program GraFit (Erithacus Software Limited) a 4 parameter logistic fit to the dose-response data was used to calculate IC50 values for each compound.

[3] = biological target: cdMMP-13 (Homo sapiens, UniProt P45452); assay: as above; format: biochemical; conditions: read-out: cdMMP-13 IC50
Experimental: (§3) The tested MMP enzymes were prepared more specifically in the laboratories of the applicants, with the exception of MMP-1. MMP-1 from human rheumatoid synovial fibroblasts was purchased from Calbiochem-Novabiochem Corporation, LaJolla. Preparation of the recombinant catalytic domain of human Gelatinase A (cdMMP-2): The catalytic domain of Pro-Gelatinase A was prepared using an E. coli expression system according to the method described by Kröger et al^[19]. The proenzyme was activated with 0.5 mM APMA at 37°C prior to use in the assay. Preparation of the recombinant catalytic domain of human neutrophile Collagenase (cdMMP-8^Met80): The enzyme was expressed in E. coli as an active variant by the method of Kleine et al^[20]. Preparation of PMNL-Gelatinase (MMP-9): Latent PMNL-pro-Gelatinase was prepared from human plasma buffy coat as described by Tschesche et al^[21]. PMNL-pro-Gelatinase was activated prior to use by incubation with Trypsin at 37°C for 10 min. Inactivation of Trypsin was accomplished with TKI. Preparation of the recombinant catalytic domain of human Macrophage Elastase (cdMMP-12): The catalytic domain of MMP-12 was expressed in E. coli. The overexpressed protein was isolated as inclusion bodies and the renatured protein was purified by affinity chromatography with a hydroxamate inhibitor coupled column as described^[22]. Preparation of the recombinant catalytic domain of human Collagenase-3 (cdMMP-13): Human pro-cdMMP-13 was prepared using an E. coli expression system according to the method described^[23]. The isolated pro-cdMMP-13 was activated prior to use by incubation with 5 mM HgCl2 for 2 h at 37°C. Preparation of the recombinant catalytic domain of Membrane-Type-1 MMP (cdMMP-14): The catalytic domain of MMP-14 was expressed in E. coli and was activated by autocatalysis^[24]. Preparation of the recombinant human ectodomain of Membrane-Type-1 MMP (ΔTM-MMP-14): The ectodomain of MMP-14 was expressed in Pichia Pastoris by the method of Roderfeld et al. and activated by yeast proteases (Furin-like-proteases) during maturation^[25].
as §1
as §2, with “The experiment was further controlled for background fluorescence of the substrate, for fluorescence of fully cleaved substrate and for fluorescence quenching or augmentation from solutions containing the test compounds.” left out

[4] = biological target: T1, cdMMP-14 (Homo sapiens, UniProt P50281); assay: as above; format: biochemical
T1 construct: made in house; host or cells: E. coli
Experimental: as §3, §1
as §2, with “The experiment was further controlled for background fluorescence of the substrate, for fluorescence of fully cleaved substrate and for fluorescence quenching or augmentation from solutions containing the test compounds.” left out

[5] = biological target: T2, cdMMP-12 (Homo sapiens, UniProt P39900); assay: as above; format: biochemical
T2 construct: The catalytic domain of MMP-12 was expressed in E. coli; made in house; host or cells: E. coli
Experimental: as §3, §1
as §2, with “The experiment was further controlled for background fluorescence of the substrate, for fluorescence of fully cleaved substrate and for fluorescence quenching or augmentation from solutions containing the test compounds.” left out

[6] = biological target: T3, MMP-1 (Homo sapiens, UniProt P03956); assay: as above; format: biochemical
T3 construct: MMP-1 from human rheumatoid synovial fibroblasts was purchased; purchased Calbiochem-Novabiochem Corporation, LaJolla; host or cells: human rheumatoid synovial fibroblasts
T3 sequence (P03956 100-469): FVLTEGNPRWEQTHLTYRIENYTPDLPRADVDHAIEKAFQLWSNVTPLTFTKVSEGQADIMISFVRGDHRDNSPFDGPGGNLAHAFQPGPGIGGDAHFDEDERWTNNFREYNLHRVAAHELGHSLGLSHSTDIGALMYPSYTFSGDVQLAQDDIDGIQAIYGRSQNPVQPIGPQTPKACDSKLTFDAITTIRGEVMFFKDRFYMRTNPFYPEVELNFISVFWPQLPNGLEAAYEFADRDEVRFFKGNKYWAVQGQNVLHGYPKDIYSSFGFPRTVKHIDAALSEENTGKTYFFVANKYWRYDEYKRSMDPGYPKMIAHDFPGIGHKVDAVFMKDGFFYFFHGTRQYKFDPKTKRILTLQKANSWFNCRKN
Experimental: as §3, §1
as §2, with “The experiment was further controlled for background fluorescence of the substrate, for fluorescence of fully cleaved substrate and for fluorescence quenching or augmentation from solutions containing the test compounds.” left out

[7] = biological target: T4, MMP-9 (Homo sapiens, UniProt P14780); assay: as above; format: biochemical
T4 construct: from tissue; host or cells: human plasma buffy coat (PMNL)
Experimental: as §3, §1
as §2, with “The experiment was further controlled for background fluorescence of the substrate, for fluorescence of fully cleaved substrate and for fluorescence quenching or augmentation from solutions containing the test compounds.” left out

T4 sequence (P14780 107-707 limits assumed): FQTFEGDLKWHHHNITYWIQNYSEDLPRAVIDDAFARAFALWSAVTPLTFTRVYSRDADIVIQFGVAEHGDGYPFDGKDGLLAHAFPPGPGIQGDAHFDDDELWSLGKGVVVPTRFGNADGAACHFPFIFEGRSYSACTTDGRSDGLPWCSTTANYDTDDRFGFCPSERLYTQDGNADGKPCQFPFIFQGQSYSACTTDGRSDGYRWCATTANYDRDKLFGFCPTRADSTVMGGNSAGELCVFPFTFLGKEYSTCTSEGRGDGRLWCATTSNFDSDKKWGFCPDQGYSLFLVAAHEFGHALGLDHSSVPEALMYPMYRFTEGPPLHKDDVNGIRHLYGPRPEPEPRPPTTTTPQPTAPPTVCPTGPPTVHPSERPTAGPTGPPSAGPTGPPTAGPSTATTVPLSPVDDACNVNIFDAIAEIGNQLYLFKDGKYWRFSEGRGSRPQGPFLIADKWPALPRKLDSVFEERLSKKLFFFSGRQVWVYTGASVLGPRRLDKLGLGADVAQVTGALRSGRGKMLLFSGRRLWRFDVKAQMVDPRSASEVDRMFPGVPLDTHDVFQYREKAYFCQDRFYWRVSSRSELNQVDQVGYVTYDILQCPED
T2 sequence (P39900 106-263 limits assumed): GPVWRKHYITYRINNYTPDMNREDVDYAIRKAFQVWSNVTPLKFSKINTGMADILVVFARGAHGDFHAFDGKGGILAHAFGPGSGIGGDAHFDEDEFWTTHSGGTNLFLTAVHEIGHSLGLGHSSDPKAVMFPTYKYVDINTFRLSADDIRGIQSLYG
Sequence of cdMMP-2 (P08253 110-446): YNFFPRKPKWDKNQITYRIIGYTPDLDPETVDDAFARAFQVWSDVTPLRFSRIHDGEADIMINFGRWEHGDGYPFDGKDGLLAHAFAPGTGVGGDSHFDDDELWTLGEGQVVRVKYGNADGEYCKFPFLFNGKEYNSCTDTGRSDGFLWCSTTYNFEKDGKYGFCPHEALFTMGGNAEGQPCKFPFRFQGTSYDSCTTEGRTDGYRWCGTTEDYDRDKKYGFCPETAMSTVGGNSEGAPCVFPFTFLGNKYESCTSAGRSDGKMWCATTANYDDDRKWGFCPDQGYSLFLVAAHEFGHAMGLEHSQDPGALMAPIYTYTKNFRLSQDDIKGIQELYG

Ki [1]	IC50 [2]	IC50 [3]	IC50 [4]	IC50 [5]	IC50 [6]	IC50 [7]	Compound
~100 nM							CC(C)(NS(=O)(=O)c1ccccc1)C(=O)NC1=NN=C(c2ccc(Cl)cc2)CS1 [Example 20, N-[5-(4-Chlorophenyl)-6H-1,3,4-thiadiazin-2-yl]-2-methyl-2-[(phenylsulfonyl)-amino]propanamide]
	743 nM	1170 nM	839 nM	338 nM	500 nM	684 nM	C[C@H](NS(=O)(=O)c1ccccc1)C(=O)NC1=NN=C(c2ccc(F)cc2)CS1 [Example 13, (2S)-N-[5-(4-Fluorophenyl)-6H-1,3,4-thiadiazin-2-yl]-2-[(phenylsulfonyl)amino]-propanamide]
